Measurements: US9363996B2, “Compositions and method for blocking ethylene response in field crops using 3-(cy-clopropyl-l-enyl)-propanoic salt” (Yissum Research Development Company of the Hebrew …, priority 2009, dated 2016)

How the values were obtained:
[1] = tested on: mature cotton leaf explants; assay: Ethylene-induced petiole abscission of mature cotton leaf explants; assay type: in vivo, cotton (Gossyium hirsutum barbadense L.); conditions: for abscission: day 5
Protocol: (1) Abscission—This is a very sensitive model system for studying the effects of plant hormones. Ethylene induces the process of abscission, while auxin delays it. In the laboratory the experimental system is based on plant organ explants, which include the abscission zone. Abscission is induced by exposure to ethylene and at the termination of the experiment the number of abscised organs, usually either leaf blades or petioles are counted and the fraction of abscission is calculated. In the case of fruit, the decrease in fruit retention force is analyzed. In cotton, when WS-CPD (the ethylene-action antagonist herein disclosed) is tested, the whole plants or explants are pretreated by spraying with the antagonist, dissolved in a phosphate buffer solution (10-20 mM, pH 7.0) including 0.1% commercially available Kinetic™ as surfactant, and left to incubate for a predetermined time, usually between 6 and 24 h. The plants or explants are then further exposed for 24 h to ethylene gas (5 to 20 μL L^−1). The plants or explants are then ventilated and incubated for the required time under controlled conditions. At the end of the experiment the percentage of abscission is determined. (2) Chlorophyll degradation—This is a standard model for studying senescence. Plant material (whole plants, excised leaves or leaf discs) are pretreated. In cotton, tobacco and wheat, when WS-CPD is tested, the whole plants or explants are pretreated by spraying with the antagonist, dissolved in phosphate buffer solution (10-20 mM, pH 7.0) including 0.1% commercially available Kinetic™ surfactant, and left to incubate for a predetermined time, usually between 6 and 241. The plants or explants are then further exposed for 24 h to ethylene gas (1 to 100 μL L^−1), or sprayed with Ethephon™ (wheat; 250 to 750 μL L^−1). The plants or explants are then ventilated and incubated for the required time under controlled conditions. At the end of the experiment a dimethylsulfoxide (DMSO) extract of the plant tissue is prepared, and the chlorophyll content of the extract is determined by spectrophotometric analysis. The chlorophyll content is reported either on a fresh, dry weight basis, or on a surface area basis. (3) Epinasty—This is also one of the classical methods for studying ethylene effects in plants. The extent of ethylene-induced epinasty of leaves is determined by measuring the change of the angle between the petiole and the stem shoot or blade. After exposure of the intact plant to ethylene, the upright grown leaves bend downward. The increase in the angle values (degrees) between petiole and the stem is used as a measure of the effect of the ethylene. […]

[2] = tested on: wheat plants; assay: Wheat grain yield at harvest, greenhouse, sandy soil, natural conditions; assay type: in vivo, wheat (Triticum turgidum var. 'Gdera')

Structure (SMILES): O=C([O-])CCC1=CC1.[Na+] [WS-CPD, 3-cyclopropyl-1-enyl-propanoic sodium salt]
- abscission percentage ([1]; WS-CPD 90 μg mL^−1): slightly lower than that of the untreated air control
- abscission ([1]; WS-CPD 10, 30 and 90 μg mL^−1): 100%
- decrease of abscission ([1]; WS-CPD 10 and 30 μg mL^−1, after 3 days of incubation, ethylene 10 μL L^−1): 20%
- abscission ([1]; WS-CPD 240-480 μg mL^−1): 50%
- effect of repeating sprays after stage II on yield ([2]; WS-CPD 120 μg mL^−1, two to four sprays at 8 to 10 days intervals): no advantage
- grains weighting less than 35 mg/grain in the spikes of the treated plants ([2]; WS-CPD 120 μg mL^−1, untreated plants more than 30% below this weight): almost no grains
- total yield increase ([2]; one spray WS-CPD 120 μg mL^−1 at milky stage I, dry grain at harvest): ca. 18%
